In the C3SDB collision cross section collection:
Values joined by “and” are separate entries in the source; they are usually repeats but may differ in a detail not shown here. Identical values can stand only once.

Assays:
[1] = instrument: TW, calibrated with phosphatidylcholines (ESI+) and phosphatidylethanolamines (ESI-)
[2] = instrument: DT, single field, calibrated with Agilent tune mix (Agilent)
[3] = instrument: DT, stepped-field
[4] = [M+Na]+; instrument: DT; stepped-field
[5] = [M-H]-; instrument: TW; calibrated with phosphatidylcholines (ESI+) and phosphatidylethanolamines (ESI-)

CCCCC/C=C\C/C=C\CCCCCCCCCC(=O)O[C@H](COC(=O)CCCCCCCCCCCCCCC)COP(=O)(O)OCCN [PE(36:2)]
collision cross section (N2) ([1]; [M+H]+): 275.7 Å²
collision cross section (N2) ([1]; [M-H]-): 267.4 Å²
collision cross section (N2) ([2]; [M+H]+): 279.3 Å²
collision cross section (N2) ([2]; [M+Na]+): 284.6 Å²
collision cross section (N2) ([2]; [M-H]-): 268.5 Å²
collision cross section (N2) ([3]; [M+H]+): 293 Å²
collision cross section (N2) ([3]; [M-H]-): 276 Å² and 275.9 Å²
collision cross section (N2) [4]: 285.7 Å²

CCCCC/C=C\C/C=C\CCCCCCCCCC(=O)O[C@H](COC(=O)CCCCCCC/C=C\C/C=C\CCCCC)COP(=O)(O)OCCN [PE(38:4)]
collision cross section (N2) ([1]; [M+H]+): 280.4 Å²
collision cross section (N2) ([1]; [M-H]-): 271.1 Å²
collision cross section (N2) ([2]; [M+H]+): 282.9 Å²
collision cross section (N2) ([3]; [M-H]-): 278.4 Å² and 277.4 Å²
collision cross section (N2) [4]: 290 Å²

CC/C=C\C/C=C\C/C=C\C/C=C\C/C=C\CCCC(=O)O[C@H](COCCCCCCCCCCCCCCCC)COP(=O)(O)OCCN [PE(o36:5)]
collision cross section (N2) ([3]; [M-H]-): 270.4 Å²
collision cross section (N2) [4]: 279.2 Å²

CCCCCCCCCCCCCCCC(=O)O[C@H](COC(=O)CCCCCCCCCCCC)COP(=O)(O)OC[C@@H](O)CO [PG(29:0)]
collision cross section (N2) [5]: 255.2 Å²

CCCCCCCCCCCCCCCCCC(=O)OC[C@H](COP(=O)(O)OC[C@@H](O)CO)OC(=O)CCCCCCCCCCC [PG(30:0)]
collision cross section (N2) [5]: 258.7 Å²
collision cross section (N2) ([3]; [M-H]-): 265.6 Å²

CCCC/C=C\CCCCCCCC(=O)OC[C@H](COP(=O)(O)OC[C@@H](O)CO)OC(=O)CCCCCCC/C=C\CCCCCC [PG(30:2)]
collision cross section (N2) [5]: 255 Å²

CCCCCCCCCCCCCCCCCCC(=O)O[C@H](COC(=O)CCCCCCCCCCC)COP(=O)(O)OC[C@@H](O)CO [PG(31:0)]
collision cross section (N2) [5]: 262 Å²

CCCCC/C=C\C/C=C\CCCCCCCC(=O)O[C@H](COC(=O)CCCCCCCCCCCC)COP(=O)(O)OC[C@@H](O)CO [PG(31:2)]
collision cross section (N2) [5]: 257.9 Å²

CCCC/C=C\CCCCCCCC(=O)OC[C@H](COP(=O)(O)OC[C@@H](O)CO)OC(=O)CCCCCCC/C=C\CCCCCCCC [PG(32:2)]
collision cross section (N2) ([1]; [M+Na]+): 269.8 Å²
collision cross section (N2) ([1]; [M-H]-): 261 Å²
collision cross section (N2) [5]: 261.4 Å²

CCCCCCCC/C=C\CCCCCCCCCC(=O)O[C@H](COC(=O)CCCCCCCCCCCC)COP(=O)(O)OC[C@@H](O)CO [PG(33:1)]
collision cross section (N2) ([2]; [M-H]-): 266.4 Å²
collision cross section (N2) [5]: 267 Å²
collision cross section (N2) ([3]; [M-H]-): 273.7 Å²

CCCCCCCCCCCCCCCCCCCCC(=O)O[C@H](COC(=O)CCCCCCCCCCCCC)COP(=O)(O)OC[C@@H](O)CO [PG(35:0)]
collision cross section (N2) [5]: 275 Å²

CCCC/C=C\CCCCCCCC(=O)OC[C@H](COP(=O)(O)OC[C@@H](O)CO)OC(=O)CCCCCCCCCCCCCCCCCCCC [PG(35:1)]
collision cross section (N2) ([2]; [M-H]-): 272.7 Å²
collision cross section (N2) [5]: 273.2 Å²
collision cross section (N2) ([3]; [M-H]-): 280.1 Å²

CCCCCC/C=C\CCCCCCCC(=O)OC[C@H](COP(=O)(O)OC[C@@H](O)CO)OC(=O)CCCCCCCCCCCCCCCCCCC [PG(36:1)]
collision cross section (N2) ([1]; [M+Na]+): 287.5 Å²
collision cross section (N2) ([1]; [M-H]-): 275.7 Å²
collision cross section (N2) ([2]; [M+H]+): 292 Å²
collision cross section (N2) ([2]; [M+NH4]+): 292.5 Å²
collision cross section (N2) ([2]; [M+Na]+): 287.5 Å²
collision cross section (N2) [5]: 275.7 Å²
collision cross section (N2) ([3]; [M-H]-): 282.9 Å² and 284.1 Å²

CCCCC/C=C\CCCCCCCC(=O)O[C@H](CO/C=C\CCCCCCCCCCCCCC)COP(=O)(O)OC[C@@H](O)CO [PG(p31:1)]
collision cross section (N2) [5]: 258.5 Å²

CCCCCCC/C=C\CCCCCCCC(=O)O[C@H](CO/C=C\CCCCCCCCCCCCCC)COP(=O)(O)OC[C@@H](O)CO [PG(p33:1)]
collision cross section (N2) [5]: 265.1 Å²

CCCCC/C=C\C/C=C\C/C=C\CCCCC(=O)O[C@H](CO/C=C\CCCCCCCCCCCCCC)COP(=O)(O)OC[C@@H](O)CO [PG(p34:3)]
collision cross section (N2) [5]: 264.8 Å²

CCCCCCCCCC/C=C\CCCCCCCCCC(=O)O[C@H](COC(=O)CCCCCCCCCCCCC)COP(=O)(O)OC[C@H](N)C(=O)O [PS(36:1)]
collision cross section (N2) ([1]; [M-H]-): 278.8 Å²
collision cross section (N2) ([2]; [M+H]+): 286.2 Å²
collision cross section (N2) ([2]; [M+Na]+): 287.5 Å²
collision cross section (N2) ([2]; [M-H]-): 279.1 Å²
collision cross section (N2) ([3]; [M-H]-): 289.4 Å²
